Assay results from ChEMBL document CHEMBL1201862, “PubChem BioAssay data set” (2004).
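Step 1: Grow cells in 96-well plates. Step 2: Expose to compound for 48 hours at 5 concentrations. Step 3: Interpolate endpoints linearly; if unreached, use highest concentration. GI50 = concentration required for 50% inhibition of growth.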 Calls of active or inactive are those of the source. Cut-off read from the data, not from the text of the source: active = GI50 up to about 1.1 µM and inactive = higher.

How the values were obtained:
Experiment in all cases: DTP human tumour cell line panel, 48 h
[1] = system: 786-0
[2] = system: ACHN
[3] = system: BT-549
[4] = system: IGROV-1
[5] = system: K562
[6] = system: LOX IMVI
[7] = system: NCI-H226
[8] = system: NCI-H23
[9] = system: SF-295
[10] = system: SK-MEL-2
[11] = system: SNB-19
[12] = system: SW-620
[13] = system: T47D
[14] = system: TK-10
[15] = system: U-251
[16] = system: UACC-257
[17] = system: UO-31
[18] = system: CAKI-1
[19] = system: HCT-116
[20] = system: HCC 2998

C=CCCC(=O)C(=[N+]=[N-])C(=O)CCC(=O)c1ccccc1
GI50 [1]: > 10 µM (inactive) | GI50 [2]: > 10 µM (inactive) | GI50 [3]: > 10 µM (inactive) | GI50 [4]: > 10 µM (inactive) | GI50 [5]: > 10 µM (inactive) | GI50 [6]: > 10 µM (inactive) | GI50 [7]: > 10 µM (inactive) | GI50 [8]: > 10 µM (inactive) | GI50 [9]: > 10 µM (inactive) | GI50 [10]: > 10 µM (inactive) | GI50 [11]: > 10 µM (inactive) | GI50 [12]: > 10 µM (inactive) | GI50 [13]: > 10 µM (inactive) | GI50 [14]: > 10 µM (inactive) | GI50 [15]: > 10 µM (inactive) | GI50 [16]: > 10 µM (inactive) | GI50 [17]: > 10 µM (inactive)

CC(=O)O[C@H]1CC[C@@]2(C)C(=CC[C@@H]3[C@@H]2CC[C@](C)(c2nnc(C)o2)[C@H]3CC#N)C1
GI50 [1]: > 100 µM (inactive) | GI50 [2]: > 100 µM (inactive) | GI50 [3]: > 100 µM (inactive) | GI50 [18]: > 100 µM (inactive) | GI50 [19]: > 100 µM (inactive) | GI50 [4]: > 100 µM (inactive) | GI50 [5]: > 100 µM (inactive) | GI50 [6]: > 100 µM (inactive) | GI50 [7]: > 100 µM (inactive) | GI50 [8]: > 100 µM (inactive) | GI50 [9]: > 100 µM (inactive) | GI50 [10]: > 100 µM (inactive) | GI50 [11]: > 100 µM (inactive) | GI50 [12]: > 100 µM (inactive) | GI50 [13]: > 100 µM (inactive) | GI50 [14]: > 100 µM (inactive) | GI50 [15]: > 100 µM (inactive) | GI50 [16]: > 100 µM (inactive) | GI50 [17]: > 100 µM (inactive)

COc1ccccc1Cc1ccc(C2C=CC3(CC(=O)C=C3C)C(=O)C2)o1 (stereo unspecified)
GI50 [1]: 20.2 µM (inactive) | GI50 [2]: 33 µM (inactive) | GI50 [3]: 20.6 µM (inactive) | GI50 [18]: 29.6 µM (inactive) | GI50 [20]: 28.1 µM (inactive) | GI50 [19]: 27.2 µM (inactive) | GI50 [4]: 29.2 µM (inactive) | GI50 [5]: 20 µM (inactive) | GI50 [6]: 17.3 µM (inactive) | GI50 [7]: 25.6 µM (inactive) | GI50 [8]: 21 µM (inactive) | GI50 [9]: 22.1 µM (inactive) | GI50 [10]: 14.7 µM (inactive) | GI50 [11]: 47.2 µM (inactive) | GI50 [12]: 18.5 µM (inactive) | GI50 [14]: 39.5 µM (inactive) | GI50 [15]: 16.3 µM (inactive) | GI50 [16]: 22.4 µM (inactive) | GI50 [17]: 29.1 µM (inactive)

NC(=O)CO/N=C1/C(=C2/C(=O)Nc3ccccc32)Nc2ccccc21
GI50 [1]: > 100 µM (inactive) | GI50 [2]: 3.48 µM (inactive) | GI50 [3]: 12.4 µM (inactive) | GI50 [18]: 0.247 µM (active) | GI50 [19]: 0.755 µM (active) | GI50 [4]: 0.395 µM (active) | GI50 [5]: 40 µM (inactive) | GI50 [6]: 1.04 µM (active) | GI50 [7]: 4.35 µM (inactive) | GI50 [8]: 0.811 µM (active) | GI50 [9]: > 100 µM (inactive) | GI50 [10]: 2.4 µM (inactive) | GI50 [11]: > 100 µM (inactive) | GI50 [12]: 4.95 µM (inactive) | GI50 [14]: 3.85 µM (inactive) | GI50 [15]: > 100 µM (inactive) | GI50 [16]: > 100 µM (inactive) | GI50 [17]: 1.77 µM (inactive)

Cc1ccc(S(=O)(=O)NC(=O)NC(C(=O)O)C(C)O)cc1 (stereo unspecified)
GI50 [1]: > 100 µM (inactive) | GI50 [2]: > 100 µM (inactive) | GI50 [3]: > 100 µM (inactive) | GI50 [19]: > 100 µM (inactive) | GI50 [4]: > 100 µM (inactive) | GI50 [5]: > 100 µM (inactive) | GI50 [6]: > 100 µM (inactive) | GI50 [8]: > 100 µM (inactive) | GI50 [9]: > 100 µM (inactive) | GI50 [10]: > 100 µM (inactive) | GI50 [11]: > 100 µM (inactive) | GI50 [12]: > 100 µM (inactive) | GI50 [13]: > 100 µM (inactive) | GI50 [14]: > 100 µM (inactive) | GI50 [15]: > 100 µM (inactive) | GI50 [16]: > 100 µM (inactive) | GI50 [17]: > 100 µM (inactive)

CCCCCCCC(=O)N1C2CC3CCC2(CS1(=O)=O)C3(C)C (stereo unspecified)
GI50 [1]: 15.7 µM (inactive) | GI50 [2]: 42.1 µM (inactive) | GI50 [3]: 26.4 µM (inactive) | GI50 [18]: 20.2 µM (inactive) | GI50 [20]: 24.7 µM (inactive) | GI50 [19]: 30.1 µM (inactive) | GI50 [4]: 43.2 µM (inactive) | GI50 [8]: 33.3 µM (inactive) | GI50 [9]: 22.2 µM (inactive) | GI50 [11]: 26 µM (inactive) | GI50 [12]: 23.3 µM (inactive) | GI50 [14]: 33.6 µM (inactive) | GI50 [15]: 31.3 µM (inactive) | GI50 [16]: 24.5 µM (inactive) | GI50 [17]: 22.6 µM (inactive)

Nc1nc2c(=O)c3ccccc3sc2s1
GI50 [1]: 34.7 µM (inactive) | GI50 [2]: 45.5 µM (inactive) | GI50 [3]: 41.4 µM (inactive) | GI50 [18]: 20.4 µM (inactive) | GI50 [19]: 57.8 µM (inactive) | GI50 [4]: 43.2 µM (inactive) | GI50 [5]: 34.8 µM (inactive) | GI50 [6]: 46.1 µM (inactive) | GI50 [7]: 21.7 µM (inactive) | GI50 [8]: 48.5 µM (inactive) | GI50 [9]: 44.1 µM (inactive) | GI50 [10]: > 100 µM (inactive) | GI50 [11]: 41.9 µM (inactive) | GI50 [12]: > 100 µM (inactive) | GI50 [13]: 69 µM (inactive) | GI50 [14]: 41.5 µM (inactive) | GI50 [15]: 45.1 µM (inactive) | GI50 [16]: 54.2 µM (inactive) | GI50 [17]: 35.6 µM (inactive)

Cn1cc[n+](-c2cc(=O)n(C)c(=O)[n-]2)c1
GI50 [1]: > 100 µM (inactive) | GI50 [2]: > 100 µM (inactive) | GI50 [3]: > 100 µM (inactive) | GI50 [19]: > 100 µM (inactive) | GI50 [4]: > 100 µM (inactive) | GI50 [5]: 81.8 µM (inactive) | GI50 [6]: > 100 µM (inactive) | GI50 [7]: 91.8 µM (inactive) | GI50 [8]: > 100 µM (inactive) | GI50 [10]: > 100 µM (inactive) | GI50 [11]: > 100 µM (inactive) | GI50 [12]: > 100 µM (inactive) | GI50 [13]: 92.3 µM (inactive) | GI50 [14]: 31.8 µM (inactive) | GI50 [15]: > 100 µM (inactive) | GI50 [16]: > 100 µM (inactive) | GI50 [17]: 44.3 µM (inactive)
